Values joined by “and” are separate entries in the source; they are usually repeats but may differ in a detail not shown here. Equal entries are not always repeated. Where two headings read alike, the source gives them in different places.
Tests used:
[1] = target: T1, recombinant human PFK-L (Homo sapiens, UniProt P17858); test: ALDO-TIM-G3PDH enzyme-linked kinetic assay, PFK-L; type: biochemical; settings: PFK-L
T1 construct: made in house; host or cells: PFK-deficient Saccharomyces cerevisiae
T1 sequence (P17858 1-780): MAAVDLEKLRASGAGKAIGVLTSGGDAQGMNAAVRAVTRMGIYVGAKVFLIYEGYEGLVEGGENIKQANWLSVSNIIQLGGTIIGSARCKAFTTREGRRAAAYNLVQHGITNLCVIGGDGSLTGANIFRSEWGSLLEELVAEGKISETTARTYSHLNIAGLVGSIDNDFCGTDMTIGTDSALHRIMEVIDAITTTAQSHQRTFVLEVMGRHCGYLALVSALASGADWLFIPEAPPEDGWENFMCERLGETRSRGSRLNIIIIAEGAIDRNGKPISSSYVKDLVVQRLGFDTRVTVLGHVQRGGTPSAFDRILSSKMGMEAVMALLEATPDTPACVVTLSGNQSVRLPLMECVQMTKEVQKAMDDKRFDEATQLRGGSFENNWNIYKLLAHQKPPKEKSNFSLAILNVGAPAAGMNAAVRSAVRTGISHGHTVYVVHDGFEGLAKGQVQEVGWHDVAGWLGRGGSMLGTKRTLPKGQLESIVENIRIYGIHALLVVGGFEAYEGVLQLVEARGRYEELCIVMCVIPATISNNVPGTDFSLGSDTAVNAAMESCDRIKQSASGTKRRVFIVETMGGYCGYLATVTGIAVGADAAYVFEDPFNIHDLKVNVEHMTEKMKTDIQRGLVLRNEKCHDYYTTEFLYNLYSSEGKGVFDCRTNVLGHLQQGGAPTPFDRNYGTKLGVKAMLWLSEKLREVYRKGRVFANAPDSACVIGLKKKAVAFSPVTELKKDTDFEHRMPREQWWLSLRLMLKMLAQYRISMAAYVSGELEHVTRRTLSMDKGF
Protocol: (§1) Recombinant human PFKs were expressed in PFK-deficient Saccharomyces cerevisiae and purified using the methods described previously, adapting earlier materials and protocols. Production of PFK intended for use in ATP titration experiments used 1 mM F6P as a tetramer stabilising agent in protein purification and storage buffers. Production of PFK intended for use in F6P titration experiments used 1 mM ATP as a tetramer stabilising agent in protein purification and storage buffers. Experimental details on the purification and characterisation procedures including figures showing SDS–PAGE gels of the highly pure PFKs used in the kinetic experiments described in this work have been recently published.
(§2) Assay buffer consisted of 50 mM TEA, 100 mM KCl, 10 mM MgCl2, 1 mM Tris(2-carboxyethyl)phosphine hydrochloride (TCEP), 10% glycerol, pH 7.4. Assay mix consisted of 5 units/ml glycerol-3-phosphate dehydrogenase (G3PDH, Sigma–Aldrich G6880), 2.5 units/ml aldolase (Sigma–Aldrich A2714), 25 units/ml triosephosphate isomerase (TIM, Sigma–Aldrich T6258), and 1.25 mM NADH. ATP and F6P were obtained from Sigma–Aldrich (A2383 and F3627, respectively). For ATP titrations, 38 µl of buffer or ligand were added to a clear non-binding 96-well plate. 40 µl of assay mix containing 10 mM F6P (final concentration 4 mM) was added and the plate was incubated at 25°C for 5 min. An amount of 2 µl of PFK isoforms were added to each well from stock concentrations of 150 µg/ml and the reaction was immediately started with 20 µl of ATP at varying concentrations. For F6P titrations, 30 µl of buffer or ligand was added to a clear non-binding 96-well plate. An amount of 40 µl of assay mix containing 1.25 mM ATP (final concentration 0.5 mM) was added and the plate was incubated at 25°C for 5 min. An amount of 5 µl of PFK isoforms were added to each well from stock concentrations of 200 µg/ml and the reaction was immediately started with 20 µl F6P at varying concentrations. All ligands and substrates (including ATP) were used at pH 7.4. All metabolites were obtained from Sigma–Aldrich unless otherwise stated. […] A SpectraMax M5 Multi-Mode Microplate Reader was used to measure A340nm at 13 s intervals for 10 min. All experiments were performed in triplicate unless otherwise stated.
(§3) Time-dependent absorbance change was converted into rate of NADH oxidation (µM s^−1) or specific activity (µmol min^−1 mg protein^−1) using the Beer-Lambert law (molar extinction coefficient of NADH 6.22 mM^−1 cm^−1). The initial rate of reaction was used to avoid accumulation of ADP, which activates PFK, interfering with the determination of kinetic properties. Non-linear regression analysis was performed on substrate titration data using GraphPad Prism 7, with curves fitted using allosteric sigmoidal models, enabling determination of steady-state kinetic values.

[2] = target: T2, recombinant human PFK-P (Homo sapiens, UniProt Q01813); test: ALDO-TIM-G3PDH enzyme-linked kinetic assay, PFK-P; type: biochemical
T2 construct: made in house; host or cells: PFK-deficient Saccharomyces cerevisiae
T2 sequence (Q01813 1-784): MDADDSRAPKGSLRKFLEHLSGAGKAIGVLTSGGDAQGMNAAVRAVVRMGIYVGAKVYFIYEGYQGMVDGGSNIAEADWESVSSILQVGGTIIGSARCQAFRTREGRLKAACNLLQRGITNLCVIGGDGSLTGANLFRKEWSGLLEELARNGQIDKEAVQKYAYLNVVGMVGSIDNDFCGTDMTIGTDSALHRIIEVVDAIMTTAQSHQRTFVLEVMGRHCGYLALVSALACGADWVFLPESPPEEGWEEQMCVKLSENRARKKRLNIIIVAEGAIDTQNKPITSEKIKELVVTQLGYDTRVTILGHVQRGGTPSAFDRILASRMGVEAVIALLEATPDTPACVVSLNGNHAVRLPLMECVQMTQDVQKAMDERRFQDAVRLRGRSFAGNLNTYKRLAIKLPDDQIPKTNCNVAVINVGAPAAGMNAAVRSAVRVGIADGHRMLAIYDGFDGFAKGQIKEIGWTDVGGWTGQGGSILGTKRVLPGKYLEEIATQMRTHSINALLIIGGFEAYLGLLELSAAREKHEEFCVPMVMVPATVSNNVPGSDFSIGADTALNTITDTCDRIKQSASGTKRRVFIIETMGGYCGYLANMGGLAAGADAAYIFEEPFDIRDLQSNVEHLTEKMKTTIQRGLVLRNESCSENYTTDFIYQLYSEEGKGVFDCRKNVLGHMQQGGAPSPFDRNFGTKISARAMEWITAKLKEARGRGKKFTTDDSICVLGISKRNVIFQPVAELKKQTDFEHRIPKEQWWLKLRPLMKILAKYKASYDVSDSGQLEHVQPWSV
Protocol: as §1, §2, §3

[3] = system: PFK; parameters: key to Effect (activator or inhibitor of PFK): “+” indicates activator; “-“ indicates inhibitor; settings: cited from earlier work; for Effect (activator or inhibitor of PFK): published literature, ref selected references in Supplementary Table 1; for IC50 or AC50 (activator) / IC50: asterisk not explained, ref Moreno-Sanchez et al., 2012; for IC50: read-out: IC50 or AC50 (inhibitor)
[4] = modulator 600 µM, ATP 0.5mM, N=3, mean (SD)
[5] = modulator 600 µM, F6P 4mM, N=3, mean (SD)
[6] = modulator 1200 µM, ATP 0.5mM, N=3, mean (SD)
[7] = modulator 1200 µM, F6P 4mM, N=3, mean (SD)
[8] = second of three values marked *
[9] = 1 mM ATP compared with 0.5 mM ATP
[10] = ATP titration, F6P 4 mM, n = 6, mean (SD)
[11] = Hill value, ATP titration, F6P 4 mM, n = 6, mean (SD)
[12] = control without modulator, run alongside modulator experiments, F6P 4mM, N=3, mean (SD)
[13] = F6P titration, ATP 0.5 mM, n = 6, mean (SD)
[14] = control without modulator, run alongside modulator experiments, ATP 0.5mM, N=3, mean (SD)
[15] = GTP titration, F6P 4 mM, n = 3, mean (SD)
[16] = Hill value, GTP titration, F6P 4 mM, n = 3, mean (SD)

Nc1ncnc2c1ncn2[C@@H]1O[C@H](COP(=O)(O)OP(=O)(O)O)[C@@H](O)[C@H]1O [ADP]
effect on PFK activity, in words [1]: mixed effects | change in kcat^ATP/K0.5^ATP compared with control PFK without modulator ([1]; modulator 600 µM): −47% | change in kcat^F6P/K0.5^F6P compared with control PFK without modulator ([1]; modulator 600 µM): +157% | K0.5F6P + modulator [1, 4]: 872.9 (14.9) M | VmaxF6P + modulator [1, 4]: 5.65 (0.07) moles/min/mg | K0.5ATP + modulator [1, 5]: 362.0 (46.5) M | VmaxATP + modulator [1, 5]: 49.38 (2.48) moles/min/mg | effect on PFK activity, in words [2]: activating | change in kcat^ATP/K0.5^ATP compared with control PFK without modulator ([2]; modulator 600 µM): +39% | change in kcat^F6P/K0.5^F6P compared with control PFK without modulator ([2]; modulator 600 µM): +129% | K0.5F6P + modulator [2, 4]: 821.7 (53.4) M | VmaxF6P + modulator [2, 4]: 2.51 (0.11) moles/min/mg | K0.5ATP + modulator [2, 5]: 290.5 (36.0) M | VmaxATP + modulator [2, 5]: 37.99 (1.74) moles/min/mg | Effect (activator or inhibitor of PFK) [3]: +

Nc1ncnc2c1ncn2[C@@H]1O[C@H](COP(=O)(O)O)[C@@H](O)[C@H]1O [AMP]
decrease in K0.5^F6P by AMP ([1]; F6P titration): more than 5 fold | change in kcat^ATP/K0.5^ATP compared with control PFK without modulator ([1]; modulator 1200 µM): +9% | change in kcat^F6P/K0.5^F6P compared with control PFK without modulator ([1]; modulator 1200 µM): +766% | K0.5F6P + modulator [1, 6]: 260.6 (8.2) M | VmaxF6P + modulator [1, 6]: 5.68 (0.06) moles/min/mg | K0.5ATP + modulator [1, 7]: 156.9 (17.6) M | VmaxATP + modulator [1, 7]: 44.45 (1.74) moles/min/mg | decrease in K0.5^F6P by AMP ([2]; F6P titration): two-fold decrease | change in kcat^ATP/K0.5^ATP compared with control PFK without modulator ([2]; modulator 1200 µM): +220% | change in kcat^F6P/K0.5^F6P compared with control PFK without modulator ([2]; modulator 1200 µM): +162% | K0.5F6P + modulator [2, 6]: 607.0 (31.0) M | VmaxF6P + modulator [2, 6]: 2.13 (0.06) moles/min/mg | K0.5ATP + modulator [2, 7]: 94.4 (10.8) M | VmaxATP + modulator [2, 7]: 28.38 (1.07) moles/min/mg | IC50 or AC50 (activator) ([3]; first of three values marked *): 860 µM | Effect (activator or inhibitor of PFK) [3]: + | IC50 or AC50 (activator) [3, 8]: 5800 µM | IC50 or AC50 (activator) ([3]; third of three values marked *): 1550 µM

Nc1ncnc2c1ncn2[C@@H]1O[C@H](COP(=O)(O)OP(=O)(O)OP(=O)(O)O)[C@@H](O)[C@H]1O [ATP]
decrease in specificity constant (ATP inhibition) [1, 9]: 31% | K0.5^ATP [1, 10]: 160 µM and 160.1 (13.5) µM | Vmax^ATP [1, 10]: 39.3 (1.2) µmoles/min.mg | kcat^ATP [1, 10]: 57.3 (1.7) s^−1 | kcat^ATP/K0.5^ATP [1, 10]: 0.36 s^−1 µM^−1 and 0.36 (0.13) s^−1 µM^−1 | h (ATP) [1, 11]: 1.12 (0.08) | K0.5ATP [1, 12]: 151.2 (16.9) M and 169.0 (21.5) M | VmaxATP [1, 12]: 39.26 (1.51) moles/min/mg and 39.36 (1.80) moles/min/mg | decrease in specificity constant (ATP inhibition) [2, 9]: 50% | K0.5^ATP [2, 10]: 275 µM and 276 µM and 275.6 (84.4) µM | Vmax^ATP [2, 10]: 27.2 (2.5) µmoles/min.mg | kcat^ATP [2, 10]: 39.7 (1.7) s^−1 | kcat^ATP/K0.5^ATP [2, 10]: 0.14 s^−1 µM^−1 and 0.14 (0.02) s^−1 µM^−1 | h (ATP) [2, 11]: 0.76 (0.09) | K0.5ATP [2, 12]: 326.9 (99.7) M and 217.9 (74.5) M | VmaxATP [2, 12]: 30.74 (2.92) moles/min/mg and 23.65 (2.40) moles/min/mg | IC50 ([3]; first of three values marked *): 1100 µM | Effect (activator or inhibitor of PFK) [3]: - | IC50 [3, 8]: 2900 µM | IC50 ([3]; third of three values marked *): 1750 µM

O=C(CO)[C@@H](O)[C@H](O)[C@H](O)COP(=O)(O)O [F6P, fructose 6-phosphate]
K0.5^F6P [1, 13]: 1360 µM and 1360 (40) µM | K0.5F6P [1, 14]: 1432 (34) M and 1282 (53) M | K0.5^F6P [2, 13]: 1333 µM and 1333 (312) µM | K0.5F6P [2, 14]: 1238 (179) M and 1607 (90) M

Nc1nc2c(ncn2[C@@H]2O[C@H](COP(=O)(O)OP(=O)(O)OP(=O)(O)O)[C@@H](O)[C@H]2O)c(=O)[nH]1 [GTP]
K0.5^GTP [1, 15]: 158 µM and 157.8 (10.8) µM | Vmax^GTP [1, 15]: 25.39 (0.56) µmoles/min.mg | kcat^GTP [1, 15]: 37.0 (0.8) s^−1 | kcat^GTP/K0.5^GTP [1, 15]: 0.23 s^−1 µM^−1 and 0.23 (0.07) s^−1 µM^−1 | h (GTP) [1, 16]: 1.18 (0.08) | K0.5^GTP [2, 15]: 131 µM and 131 (20.9) µM | Vmax^GTP [2, 15]: 12.30 (0.62) µmoles/min.mg | kcat^GTP [2, 15]: 17.9 (0.9) s^−1 | kcat^GTP/K0.5^GTP [2, 15]: 0.14 s^−1 µM^−1 and 0.14 (0.04) s^−1 µM^−1 | h (GTP) [2, 16]: 1.12 (0.18)
